# Read-outs that look alike come from different tables or passages of the source.
# What was measured:
# [1] = tested on: mice with LPS-induced sepsis; settings: eight mice per group; intranasal drip pulmonary delivery at 0, 6, 23.5 hr; LPS 50 μg at 24 hour; control three out of eight died
# Protocol: In all three groups, LPS-induced sepsis was caused by delivery of highly concentrated LPS (50 μg) at 24 hour. […] In the steroid-treated mice, an inhaled corticosteroid (ICS) was delivered for 5 minutes through intranasal drip pulmonary delivery at 0 hr, 6 hr, and 23.5 hr. In the control group, no drug was administered prior to inducing LPS sepsis.
# [2] = tested on: Brown Norway (BN) rats sensitized to ragweed pollen extract; settings: aerosolized 0.05% brimonidine or 0.005% dexmedetomidine for 10 minutes before ragweed extract, FIG. 3
# Protocol: The control group rats were pretreated with aerosolized saline and administered aerosolized saline. The saline group rats were pretreated with aerosolized saline, then exposed to aerosolized ragweed extract for 10 minutes.
# At 10 minutes after completion of the allergen exposure, rats were anesthetized and exsanguinated, and their lungs were lavaged with 50 ml of buffer solution. The resulting bronchoalveolar lavage (BAL) fluid was centrifuged to remove the cells, and the supernatants were analyzed for albumin concentration using an ELISA assay for rat albumin.
# [3] = Ionization as a function of pH; assay type: physicochemical
# Excerpt: At a lower pH and a lower lipophilicity, bronchial mucosal membrane retention time is maximized and mucosal penetration is reduced. More of a drug is washed away and less is absorbed into lung parenchyma increasing the surface mucosal effect. The higher the lipophilicity, the greater is the selective α-2 agonist's penetration through the lipophilic mucosal cell membranes. This is because at a more alkaline pH, more of the compound is present in a non-ionized form.
# When a selective α-2 agonist is lipophilic, it becomes highly ionized as it enters the distal esophagus and stomach. […] Thus, it is very poorly absorbed in lipophilic membranes of the gastrointestinal tract and therefore, results in less systemic absorption.
# [4] = Excerpt: The terms “salt” and “constituent of a balanced salt solution” are used interchangeably for the purposes of the present invention. They are a subset of agents that improve solubility of the inventive formulations.
# [5] = remark: listed apart in the source
# Excerpt: The doses are estimates only, assuming less than 20% nebulized DTL (dose to lung).
# Remark: listed apart in the source
# [6] = tested on: α-2 over α-1 adrenergic receptors; settings: cited from earlier work
# [7] = cited from earlier work
structure (smiles),measurement,setting,value
"Brc1c(NC2=NCCN2)ccc2nccnc12.O=C(O)C(O)C(O)C(=O)O [brimonidine, 5-bromo-6-(2-imidazolin-2-ylamino)quinoxaline D-tartrate]",deaths because of LPS-induced sepsis,[1],no animals died
same,BAL albumin concentration after ragweed exposure,[2],no apparent protective effect
Cc1cccc([C@H](C)c2cnc[nH]2)c1C [dexmedetomidine],ionized,[3]; in pharynx (pH is about 6.8),about 65%
same,ionized,[3]; in stomach (pH of less than 5.0),~100%
same,ionized,"[3]; lungs and airways, pH about 7.4 to 7.8",10-23%
same,ionized,[3]; pH of 6.7,about 65%
same,non-ionized,[3]; pH of 6.7,about 35%
same,ionized,[3]; pH of 8.0 or greater,about 10%
same,non-ionized,[3]; pH of 8.0 or greater,about 90%
same,"max soluble concentration, BSS solution",[4]; pH 7,≧0.10%
same,soluble concentration with constituents of a balanced salt solution,[4]; pH 7.1,≥ 0.1%
same,wheeze-auscultation score,"[5]; nebulized 0.03% at pH 5.0, reduced from baseline 10, scale for mild asthma",about 5
same,lung effects (wheeze and airway resistance versus baseline),"[5]; nebulized 0.03% at pH 8.0, versus pH 5.0",the lung effects are greater
same,max soluble concentration,pH 6,0.195%
same,max soluble concentration,pH 6.4,0.060%
same,max soluble concentration,pH 7,0.023%
same,max soluble concentration,pH 7.4,0.015%
same,max soluble concentration,pH 8,0.013%
same,BAL albumin concentration after ragweed exposure,[2],albumin levels similar to those of control rats
same,solubility,"physchem; pH 6, aqueous buffer",1950 µg/mL
same,solubility,"physchem; pH 6.4, aqueous buffer",~600 µg/mL
same,solubility,"physchem; pH 7, aqueous buffer",224 µg/mL
same,solubility,"physchem; pH 7.4, aqueous buffer",~150 µg/mL
same,solubility,"physchem; pH 8, aqueous buffer",134 µg/mL
same,α2/α1 selectivity,[6],"over 1,500"
CNC1(c2ccccc2Cl)CCCCC1=O (stereo not drawn) [ketamine],ionization,[3]; pH of about 8.5,about 10%
same,ionization,[3]; physiologic pH,over 60%
same,plasma level at which dissociative changes have been documented,[7]; in vivo,≤ 1000 ng/mL
same,plasma level at which sedation occurs,[7]; in vivo,about 9000 μg/L
same,plasma levels with prior art inhalation forms,[7]; inhalation,over 800 ug/L

# Source: patent US20110244058A1, “Compositions and methods for treatment of pulmonary diseases and conditions” (priority 2008, published 2011)
